The values below come from patent US20060111335A1, “Photoactivated anti-viral and anti-cancer agent” (priority 2002, published 2006).

Where two headings read alike, the source gives them in different places.

One series deals with KB cells. Description: Phototoxicity to KB tumor cells, MTT assay. (Formazan colour is commonly taken as a measure of viable cells.)
In a further series the test system is φX-174 plasmid DNA. The series is described as follows: Photonicking of φX-174 plasmid DNA, gel electrophoresis. In kind it is biochemical. Conditions: Example IX, dark and upon exposure to light. The protocol:
Photolysis with φX-174 Plasmid DNA. Metal complex solutions (with or without quenchers) were saturated with oxygen or argon prior to irradiation. The solutions were further degassed after being mixed with the plasmid. The final solution concentrations were: DPPZPHEN ([…]), φX-174 plasmid DNA (205 μM in base pairs), superoxide dismutase (25 μg/mL), 2-propanol (0.5 M), mannitol (6.25 mM), histidine (8 mM).
Experiments were conducted as described in Example X to evaluate the amount photonicking that occurred in the dark and upon exposure to light for 37TMBP, 56TMBP, OCTBP, BISNMe2, TMOBP, TIOBP, TPBP, BISTAP and BISDPPZ.

The subject of the next series is Calf thymus DNA. The series is described as follows: Dark association with DNA, UV-Visible titration (Example XI). It counts as binding. The settings on record: 50 mM pH 7 I=0.15 sodium phosphate buffer (physiological condition).
For the next series, the system named is cells. Description: Phototoxicity, summary statement of Example XII. It counts as cell-based.
The nature of series [1]: Reversed phase HPLC elution on C8 column as measure of hydrophobicity. It counts as physicochemical. The settings on record: 45% acetonitrile in 100 mM ammonium acetate pH 5.4. The protocol:
Reversed phase high performance liquid chromatography (RP-HPLC) was carried out on C8 columns. Compounds were tested using 20%, 30% and 45% acetonitrile in 100 mM ammonium acetate at pH 5.4 for elution on a C8 column, with the intention of achieving an elution time of about 15 minutes. It was expected that the more hydrophobic a compound, the higher the acetonitrile content one would need for the eluent.

Series [2] in a line: Dark thermal aquation and thermal base hydrolysis. It counts as physicochemical. Conditions: 80° C. with 10% NaOH. An excerpt: A dissociation/addition mechanism is generally accepted as responsible for the substitution chemistry associated with a hexacoordinated Rh(III) ligand field triplet (Weiland et al., Inorg. Chem., 25:4893 (1986)). The dissociation step is due to the promotion of an electron from the t2g orbital to the eg orbital, which leads to significant weakening of the metal ligand bonds. (Hipps et al., Inorg. Chem., 13:1544 (1974)).

Series [3] relates to calf thymus DNA than BSA protein. The series is described as follows: In vitro kinetic and thermodynamic studies of affinity, DNA versus protein. In kind it is binding.
The next series has as its system M109 cells. Description: Phototoxicity to M109 tumor cells, MTT assay. It counts as cell-based, mouse. Conditions: OCTBP, 55 μM (FIG. 10). The protocol:
(§1) Photolysis with Tumor Cells.
Procedures for cell maintenance, cell plating, drug incubation, photolysis and MTT assay are all same as that used for the KB cell lines. A small amount of dark toxicity was observed (about 15%). A considerable amount of killing occurs with light alone after 30 and 40 minutes of irradiation (FIG. 10).

The nature of series [4]: Photodestruction (photoaquation) with visible light >500 nm, HPLC analysis. The settings on record: 0.1 mM aqueous, 8 hours under argon. In kind it is physicochemical. The procedure: Aqueous solutions (3 mL, 0.1 mM) of the Rh complexes were irradiated for 8 hours under argon using a 450 W Hanovia medium pressure mercury lamp filtered through a uranium yellow glass (cut-off<330 nm) and a 1.5 cm 0.5% (w/v) aqueous solution of K2Cr2O7 (0% transmittance≦500 nm). Photodestruction of the metal complexes was followed by HPLC analysis.

A further series has as its system GN4 cells. Description: Phototoxicity to GN4 tumor cells, MTT assay. It counts as cell-based, canine. The protocol:
as §1
Media was decanted from the flask. […] Trypsin-EDTA was then decanted and the flask was incubated at 37° C. for 8 minutes. […] Released cells were suspended in 5 mL of media and shaken well. […] The remaining cells were discarded.
Cells were plated, incubated with the drug, and photolysis was conducted as for the KB cell lines.

The next series deals with cell membrane. Description: Cell uptake / passage through the cell membrane. The protocol:
OCTBP uptake by KB cells. 11 mg of OCTBP was dissolved in 40 mL of PBS buffer. The solution was vortex stirred for 5 minutes to completely dissolve the solid. The solution was sterile filtered through a 0.2μ nylon syringe filter. The concentration of the solution was determined by measuring the UV absorption at 353 nm (ε353nm=1565 M^−1cm^−1).
Once the cells were 75% confluent media was decanted from the flasks and 8 mL of drug solutions were added to three flasks and 8 mL of PBS buffer solution was added to the control flask. The flasks were incubated at 37° C. for 15, 30 and 45 minutes. Control flask was incubated for 45 minutes. When the flasks were removed, they were washed with 6×10 mL of PBS buffer solution. All the liquid was carefully decanted from the flasks. 1 mL of lysing buffer (1% triton X-100) was added to each of the four flasks. The walls of the flasks were rinsed using disposable pipettes. Once all the contents of the flasks were placed into a 1.5 mL disposable centrifuge tubes (each flask yielded ˜1.2 mL), the tubes were centrifuged at 6000 rpm and at 4° C. for 30 minutes on the Fisher Model 59V high-speed centrifuge. BCA Assay was done to establish the amount of cells in each flask.
Rh content of each flask was determined using an inductively coupled plasma (ICP) instrument (AtomScan16, Thermo Elemental, Franklin, Mass.). From each centrifuge tube 1 mL was pipetted and 370 μL of concentrated HCl was added to form a 10% solution. The samples were heated in a hot water bath at 70° C. for 30 minutes. The samples were centrifuged again and the supernatant liquid was diluted to 8 mL by adding nano-pure water. The samples were analyzed for Rh content by ICP.

A further series concerns cell. Conditions: cited from earlier work.
A further series relates to bacteriophage φ6. Conditions: cited from earlier work.
For series [5] the following is noted: cited from earlier work.
Another series deals with protein. Conditions: cited from earlier work.
The next series concerns Sindbis virus. Conditions: cited from earlier work.
For a further series, the system named is nucleic acid. Conditions: cited from earlier work.
Another series deals with DNA. The settings on record: dark; cited from earlier work.

Experimental for KB cells: Photolysis with Tumor Cells. […] At the beginning of an experiment media was removed from all plates and the cells were washed with 1 mL of PBS or Hank's salt solution. Drug solution (2 mL) or buffer solution (2 mL) was added to each dish. […] Cells were incubated, with or without metal complex, for 4 hours. After incubation, the solutions were removed from the dishes and the dishes were washed with 1 mL of PBS or Hank's salt solution. A fresh 1 mL of PBS or Hank's salt solution was added to each dish and these were placed on a turntable that sat on the top part of the photolysis chamber. […] The plates were then incubated for 40-48 hours before a determination of the extent of cell toxicity by MTT assay.
Cells were incubated in 75 cm^2 culture flasks. They were grown in Dulbecco's Modified Eagles Medium (D-MEM) supplemented with 10% heat inactivated fetal bovine serum (FBS), 1% L-glutamine-penicillin-streptomycin and 1% amphotericin-B. When cells were not plated for use in an experiment, they were transferred when they were 75-100% confluent using the following procedure. Media was decanted from the flask. Cells were rinsed 1-2 times with 10 mL of Hank's Balanced salt solution. […] Trypsin-EDTA was then decanted and the cells were released from the wall of the flask by tapping the side of the flask. Released cells were suspended in 5 mL media and 1 mL of this suspension was placed in a new culture flasks containing 20 mL of fresh media. The remaining cells were discarded. A culture flask can be used for 3 transfers.
Usually 16-24 hours before a photolysis experiment, cells were plated in 35×10 mm tissue culture dishes and incubated at 37° C. until the experiment was begun. Cells were about 75-100% confluent in the 75 cm^2 culture flask when plated. After being washed and released from the flask as described above, cells were suspended in 40 mL media and 1.5 mL of suspension was placed in each dish.
The concentration of the solution was 70 μM.
The cell dishes were incubated with drug or Hanks balanced salt solution (1 mL) for 3 hours. After incubation, solutions were decanted from the plates and 1 mL of Hank's Balanced salt solution were placed in each. […] Following photolysis, Hank's Balanced salt solutions were decanted and 1 mL of fresh media was placed in each plate.
Plates were incubated for 65 hours and then analyzed for cell survival by MT assay. 5 mg/mL MTT solution in water was prepared and 100 μL of this solution was added to each plate and the plates were incubated for 1.5 hours. Purple crystals formed from live cells. Media was gently removed from plates using a Pasteur pipette, the purple crystals that remained at the bottom of the dish were dissolved in 6 mL of isopropanol.
Phototoxicity studies with long wavelength light (>400 nm). […]

Turning to `CC1=C[N]2c3c4c(ccc3=C1C)=C(C)C(C)=C[N]4[Rh+]21([Cl])([Cl])[N]2C=C(C)C(C)=c3ccc4c(c32)[N]1C=C(C)C=4C.[Cl-]` [OCTBP, cis-dichlorobis(3,4,7,8-tetramethyl-1,10-phenanthroline) rhodium(III) chloride], the cell death turned out to be 40% with KB cells (OCTBP 55 μM, >400 nm light, 60 minutes) and 25% in the series with GN4 cells (OCTBP 63 μM, >400 nm light, 60 minutes). The dark toxicity result in the series on KB cells (OCTBP 70 μM) is listed as “dark toxicity wasn't observed”; in the series on KB cells (OCTBP 80 μM) it was “considerable amount of dark toxicity”; in the series with M109 cells, “about 15%”. In addition, the “photonicking of φX-174 plasmid DNA” value with φX-174 plasmid DNA was “Only TPBP, BISTAP, BISDPPZ and BISDPPHEN complexes were found to photonick”. In the series on Calf thymus DNA, the “apparent (intrinsic) binding constant Kapp” value is 4.25 E3 M. Moreover, in the series on cells, the phototoxicity entry was “are phototoxic”. Also, in series [1], the elution time entry is on record as “about 15 minutes”. Besides, in series [2], the “thermal hydrolysis, rank order” value is reported as “OCTBP≅37TMBP>BISPHEN”. Also, the “affinity toward calf thymus DNA compared with BSA protein” value in [3] is “greater affinity toward calf thymus DNA than BSA protein”. Moreover, the photodestruction in series [4] is 9.3 % loss. Besides, the photo-cell death entry with GN4 cells (OCTBP 55 μM, 311 nm) is on record as “no photo-cell death occurred”. Also, the photo-initiated cell death entry with GN4 cells (OCTBP 75 μM, 311 nm, 40 minutes) is recorded as “about 20%”. Also, in the series on cell membrane, the “ability to pass through the cell membrane” value was “able to pass through the cell membrane”.

With `[Cl-].[Cl][Rh+]12([Cl])([N]=c3c(c4ccccc4c4ccccc34)=[N]1)[N]1C=CC=c3ccc4c(c31)[N]2C=CC=4` [PHENPHI, cis-dichloro(1,10-phenanthroline)(9,10-phenathrenequinone diimine)rhodium(III) chloride], the photoinduced cell death result in the series on cell was “substantial photoinduced cell death”. Besides, the “penetration of the cell membrane” value in the series on cell (without liposomes) is “does not require liposomes to penetrate the cell membrane”. Moreover, the “activity against bacteriophage φ6” value in the series on bacteriophage φ6 is listed as “potent virucidal activity”. Besides, the stability entry in series [5] (37° C., phosphate-buffered saline (PBS) pH 7) is reported as “decomposing”; in series [5] (room temperature, Tris buffer pH 7), “decomposing”. Further, the ligand exchange result in series [5] (acetate buffer pH 5) is listed as “readily substitutes acetate for chloride ligand”. Also, the “binding affinity for protein” value in the series with protein was “substantial binding affinity for protein”. Further, the “phototoxicity / virucidal activity against Sindbis virus” value in the series on Sindbis virus is recorded as “potent virucidal activity”. Also, in the series with nucleic acid, the photonuclease activity entry is listed as “exhibited photonuclease activity”. Besides, in the series with nucleic acid (irradiated with light), the “covalent binding to nucleic acid upon irradiation” value is “covalently binds to DNA”. In the series with DNA, the “Keq of dark association with DNA” value is 37000 M⁻¹.
